Consider 65 compounds from patent publication US7514582B2, “2′-substituted 1,1′-biphenyl-2-carboxamides, processes for their preparation, their use as medicaments, and pharmaceutical preparations comprising them” (Sanofi-Aventis Deutschland GmbH, priority 1999, dated 2009).

The target in one data set is T1, Kv1.5 channels from humans (Homo sapiens, UniProt P22460).
T1 construct: expressed in transfected cells; host or cells: Xenopus laevis oocytes injected with in vitro synthesized RNA
T1 sequence (P22460 whole entry): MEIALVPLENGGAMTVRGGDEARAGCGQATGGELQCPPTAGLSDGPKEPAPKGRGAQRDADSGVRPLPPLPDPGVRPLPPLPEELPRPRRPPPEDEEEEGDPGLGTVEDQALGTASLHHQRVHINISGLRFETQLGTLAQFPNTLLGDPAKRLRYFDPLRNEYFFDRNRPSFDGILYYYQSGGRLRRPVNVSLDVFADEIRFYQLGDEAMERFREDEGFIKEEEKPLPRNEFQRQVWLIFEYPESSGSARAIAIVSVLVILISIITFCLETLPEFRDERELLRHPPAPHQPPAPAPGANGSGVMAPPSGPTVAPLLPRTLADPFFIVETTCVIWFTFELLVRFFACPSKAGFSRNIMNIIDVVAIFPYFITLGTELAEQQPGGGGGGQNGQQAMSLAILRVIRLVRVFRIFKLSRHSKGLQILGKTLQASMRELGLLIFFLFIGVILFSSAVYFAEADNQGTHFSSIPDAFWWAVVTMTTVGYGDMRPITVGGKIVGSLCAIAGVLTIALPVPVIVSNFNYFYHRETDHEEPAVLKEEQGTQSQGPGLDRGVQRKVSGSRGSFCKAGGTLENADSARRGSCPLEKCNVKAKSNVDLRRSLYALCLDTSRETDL
The data set can be described thus: Kv1.5 currents in Xenopus oocytes, two-microelectrode voltage clamp.
Settings: not given
Type of data set: cell-based. The protocol:
Kv1.5 channels from humans were expressed in Xenopus oocytes. For this, oocytes from Xenopus laevis were first isolated and defolliculated. RNA encoding Kv1.5 synthesized in vitro was then injected into these oocytes. After Kv1.5 protein expression for 1-7days, Kv1.5 currents were measured on the oocytes using the two-microelectrode voltage clamp technique. The Kv1.5 channels were in this case as a rule activated using voltage jumps to 0 mV and 40 mV lasting 500 ms. The bath was rinsed with a solution of the following composition: NaCl 96 mM, KCl 2 mM, CaCl2 1.8 mM, MgCl2 1 mM, HEPES 5 mM (titrated with NaOH to pH 7.4). These experiments were carried out at room temperature. The following were employed for data acquisition and analysis: Genedamp amplifier (Axon Instruments, Foster City, USA) and MacLab D/A converter and software (AD Instruments, Castle Hill, Australia). The substances according to the invention were tested by adding them in different concentrations to the bath solution. The effects of the substances were calculated as the percentage inhibition of the Kv1.5 control current which was obtained when no substance was added to the solution. The data were then extrapolated using the Hill equation in order to determine the inhibitory concentration IC50 for the respective substances.
By IC50 is commonly meant the concentration at which inhibition is half-maximal. Higher therefore signals a need for much substance. The compound `O=C(Cc1ccc(F)cc1)NCc1ccccc1-c1ccccc1C(=O)NCc1ccc(F)cc1F` [18 u] displayed an IC50 of 1100 nM.
Consider `COCCNC(=O)c1ccccc1-c1ccccc1CNC(=O)Nc1ccc(Cl)cc1` [11 g], for which the IC50 was 7800 nM.
As for `O=C(NCc1ccccc1-c1ccccc1C(=O)NCCc1cccnc1)OCc1ccccc1` [8 aa], the IC50 was found to be 800 nM.
On to `CCCCN(CCCC)C(=O)c1ccccc1-c1ccccc1CNC(=O)OCc1ccccc1` [6 e], for which inhibition was half-maximal at 3600 nM (IC50).
The compound `CC(C)C[C@H](NC(=O)c1ccccc1-c1ccccc1CNC(=O)OCc1ccccc1)C(=O)NCc1ccccc1` [13 c] gave an IC50 of 1400 nM.
`C[C@@H](NC(=O)NCc1ccccc1-c1ccccc1C(=O)NCCc1ccccn1)c1ccccc1` [5 e] had an IC50 of 7200 nM.
For `C[C@H](OC(=O)NCc1ccccc1-c1ccccc1C(=O)NCCc1ccccn1)c1ccc(C(F)(F)F)cc1` [1 g], the IC50 came to 400 nM.
With `C[C@@H](OC(=O)NCc1ccccc1-c1ccccc1C(=O)NCCc1ccccn1)c1ccc(C(F)(F)F)cc1` [1 h], the IC50 came to 4300 nM.
In the case of `CCCC(C)OC(=O)NCc1ccccc1-c1ccccc1C(=O)NCC1CC1` (centres unmarked) [18 m], 2100 nM corresponded to half-maximal inhibition (IC50).
With `CC(C)CCC(=O)NCc1ccccc1-c1ccccc1C(=O)NCC1CC1` [18 a], the midpoint of inhibition, the IC50, lay at 7200 nM.
`CC(C)CCC(=O)NCc1ccccc1-c1ccccc1C(=O)NCc1ccc(F)cc1F` [18 e] displayed an IC50 of 1700 nM.
Take `CC(C)CCNC(=O)c1ccccc1-c1ccccc1CNC(=O)OCC1CC1` [18 o]: 3600 nM corresponded to half-maximal inhibition (IC50).
`O=C(NCc1ccccc1)c1ccccc1-c1ccccc1CNS(=O)(=O)c1cccc(F)c1` [3 k] showed an IC50 of 2400 nM.
On the same count and under the same terms, to `O=C(NCCc1ccccn1)c1ccccc1-c1ccccc1CNS(=O)(=O)c1ccccc1` [3 p] belongs 1900 nM.
As for `C[C@H](CC(=O)NCc1ccccc1-c1ccccc1C(=O)NCCc1cccnc1)c1ccccc1` [18 i], the half-maximal inhibitory concentration (IC50) was 400 nM.
As to `O=C(CCc1ccc(O)cc1)NCc1ccccc1-c1ccccc1C(=O)NCc1ccc(F)cc1F` [14 d], inhibition was half-maximal at 2000 nM (IC50).
Still for that read-out and setting: to `COC(=O)[C@H](Cc1ccccc1)NC(=O)c1ccccc1-c1ccccc1CNC(=O)OCc1ccccc1` [8 b] belongs 900 nM; to `CCC(C)CC(=O)NCc1ccccc1-c1ccccc1C(=O)NCc1ccccn1` (centres unmarked) [18 g], 3900 nM.
With `CC(OC(=O)NCc1ccccc1-c1ccccc1C(=O)NCCc1ccccn1)c1ccc(C(F)(F)F)cc1` (racemic) [1 f], half-maximal inhibition (IC50) required 400 nM.
In turn, `CN(C)c1ccc(CNC(=O)c2ccccc2-c2ccccc2CNC(=O)OCc2ccccc2)cc1` [8 x] registered an IC50 of 3300 nM.
Turning to `O=C(NCc1ccccc1-c1ccccc1C(=O)NCc1ccccn1)OCc1ccccc1` [1 u], the IC50 turned out to be 800 nM.
The compound `O=C(NCc1ccccc1-c1ccccc1C(=O)NCc1cccnc1)OCCc1ccccc1` [18 q] had an IC50 of 3200 nM.
Regarding `CC(C)CCNC(=O)c1ccccc1-c1ccccc1[C@H](C)NC(=O)O[C@@H](C)c1ccccc1` [17 e], the half-maximal inhibitory concentration (IC50) came to 1800 nM.
`O=C(NCc1ccccc1-c1ccccc1C(=O)NCc1ccc(F)cc1F)Oc1ccc(F)cc1` [2 j] returned an IC50 of 2500 nM.
In turn, `CC(C)C[C@H](NC(=O)c1ccccc1-c1ccccc1CNC(=O)OCc1ccccc1)C(=O)Nc1ccccc1` [13 b] had an IC50 of around 3000 nM.
The compound `COc1ccc(CC(=O)NCc2ccccc2-c2ccccc2C(=O)Nc2ccc(OC)cc2)cc1` [4 g] displayed an IC50 of 3400 nM.
`CC(C)CCNC(=O)c1ccccc1-c1ccccc1[C@H](C)NC(=O)OCc1ccccc1` [17 d]: half-maximal inhibition (IC50) was put at 1300 nM.
`CC(C)CCNC(=O)c1ccccc1-c1ccccc1CNC(=O)OCc1ccccc1Cl` [2 e] had an IC50 of 3400 nM.
The compound `O=C(NCc1ccccc1-c1ccccc1C(=O)Nc1ccccc1)OCc1ccccc1` [6 c] had an IC50 of 2500 nM.
On the same count and under the same terms, with `CC(C)CCNC(=O)c1ccccc1-c1ccccc1[C@@H](C)NC(=O)OCc1ccccc1` [17 c] the figure was 2100 nM.
Still for that read-out and setting: to `CC(C)CCNC(=O)c1cc(O)ccc1-c1ccccc1CNC(=O)OCc1ccccc1` [16 b] belongs 5200 nM.
Regarding `O=C(NCc1ccccc1-c1ccccc1C(=O)NCCc1ccccn1)Nc1ccc(C(F)(F)F)cc1` [11 m], inhibition was half-maximal at 3300 nM (IC50).
As to `O=C(NCc1ccccc1-c1ccccc1C(=O)NCCc1ccccn1)Nc1cccc(C(F)(F)F)c1` [11 o], the IC50 stood at 4400 nM.
For `COc1ccc(CC(=O)NCc2ccccc2-c2ccccc2C(=O)NCCc2ccncc2)cc1` [4 j], the IC50 is 7100 nM.
Turning to `COc1ccc(CC(=O)NCc2ccccc2-c2ccccc2C(=O)NCCCOC(C)C)cc1` [18 y], the IC50 amounted to 1900 nM.
Still for that read-out and setting: with `CC(C)CCNC(=O)[C@H](CC(C)C)NC(=O)c1ccccc1-c1ccccc1CNC(=O)OCc1ccccc1` [13 e] the figure was 2800 nM.
In the case of `CC(C)CCNC(=O)c1ccccc1-c1ccccc1CNC(=O)COc1ccccc1` [18 c], the IC50 turned out to be 4200 nM.
Compound `O=C(NCc1ccccc1-c1ccccc1C(=O)NCCc1ccccn1)Nc1ccc(F)cc1F` [11 b] displayed an IC50 of 7300 nM.
The compound `O=C(Cc1ccc(F)cc1)NCc1ccccc1-c1ccccc1C(=O)Nc1ccc(F)cc1` [18 k] displayed a 50% inhibitory concentration (IC50) of 3000 nM.
On to `CCCCOC(=O)NCc1ccccc1-c1ccccc1C(=O)NCCC(C)C` [2 d], for which the IC50 was 1700 nM.
`CC(C)(C)OC(=O)NCc1ccccc1-c1ccccc1C(=O)NCc1ccccn1` [8 d] had an IC50 of 6400 nM.
With `O=C(NCc1ccccc1-c1ccccc1C(=O)NCCOc1ccccc1)Nc1ccc(F)cc1F` [11 p], it took 7300 nM to reach half-maximal inhibition (IC50).
Still for that read-out and setting: with `O=C(NCCc1ccccn1)c1ccccc1-c1ccccc1CNS(=O)(=O)c1cccc(F)c1` [3 r] the figure was 1500 nM; with `O=C(NCc1ccccc1-c1ccccc1C(=O)NCCc1ccccn1)OCc1ccc(F)cc1` [1 e], 500 nM.
`O=C(NCc1ccccc1-c1ccccc1C(=O)NCc1ccc(F)cc1F)Oc1ccccc1` [2 k] yielded an IC50 of 3800 nM.
Compound `COc1ccc(-c2ccccc2CNC(=O)OC(C)(C)C)c(C(=O)NCCC(C)C)c1` [15 b] showed an IC50 of 3100 nM.
Consider `C[C@H](CC(=O)NCc1ccccc1-c1ccccc1C(=O)NCCc1ccncc1)c1ccccc1` [18 h], for which the IC50 was 800 nM.
Regarding `C[C@H](NC(=O)NCc1ccccc1-c1ccccc1C(=O)NCCc1ccccn1)c1ccccc1` [5 d], half-maximal inhibition (IC50) required 1900 nM.
Consider `O=C(CCc1ccc(F)c(F)c1)NCc1ccccc1-c1ccccc1C(=O)NCc1ccc(F)cc1F` [14 f], for which it took 2500 nM to reach half-maximal inhibition (IC50).
With `COc1ccc(CC(=O)NCc2ccccc2-c2ccccc2C(=O)NC2CCCC2)cc1` [18 z], the concentration for half-maximal inhibition (IC50) was 1200 nM.
The compound `CCOc1ccc(CCC(=O)NCc2ccccc2-c2ccccc2C(=O)NCCc2ccccn2)cc1` [4 k] returned a 50% inhibitory concentration (IC50) of 2200 nM.
In turn, `C[C@@H](OC(=O)NCc1ccccc1-c1ccccc1C(=O)NCc1ccc(F)cc1F)c1ccccc1` [1 o] gave an IC50 of 4400 nM.
`COC(=O)c1ccc(OC(=O)NCc2ccccc2-c2ccccc2C(=O)NCCC(C)C)cc1` [2 h] gave an IC50 of 2500 nM.
Same read-out and setting: with `CC(C)C[C@H](NC(=O)c1ccccc1-c1ccccc1CNC(=O)OCc1ccccc1)C(=O)NCC(F)(F)F` [13 d] the figure was 500 nM; with `O=C(Cc1ccc(O)cc1)NCc1ccccc1-c1ccccc1C(=O)NCc1ccc(F)cc1F` [18 w], 5400 nM.
The same measure, in the same setting: with `O=C(NCc1ccccc1-c1ccccc1C(=O)NCCc1ccccc1)OCc1ccc(C(F)(F)F)cc1` [1 a] the figure was 6100 nM; with `Cc1ccccc1CCC(=O)NCc1ccccc1-c1ccccc1C(=O)NCc1ccc(F)cc1F` [14 a], 3600 nM; with `CC(C)CCNC(=O)c1ccccc1-c1ccccc1CNC(=O)C[C@@H](C)c1ccccc1` [18 d], 400 nM.

Staying with this data set, now noted: human Kv1.5 expressed in Xenopus laevis oocytes; voltage jumps to 0 mV and 40 mV, 500 ms; room temperature; inhibition of Kv1.5 control current, Hill equation.
For the compound `COc1ccc(NC(=O)NCc2ccccc2-c2ccccc2C(=O)NCCc2ccccn2)cc1` [11 a], the midpoint of inhibition, the IC50, lay at 2300 nM.
`O=C(NCc1ccccc1-c1ccccc1C(=O)NCc1ccccn1)Nc1ccc(C(F)(F)F)cc1` [11 d]: the IC50 was found to be 3300 nM.
In turn, `COc1cc(CNC(=O)c2ccccc2-c2ccccc2CNC(=O)Nc2ccc(F)cc2F)cc(OC)c1OC` [11 h] gave an IC50 of 5800 nM.

System in the next data set: not given
Assay: not given
Settings: not given
By melting point is commonly meant the temperature, or range, at which the solid turns liquid. As to `O=C(NCc1ccccc1)c1ccccc1-c1ccccc1CNS(=O)(=O)c1cccc(F)c1` [Example 3 k, 2′-(3-Fluorophenylsulfonylaminomethyl)biphenyl-2-carboxylic acid benzylamide], the melting point was 147 °C.
In the case of `CC(=O)c1cccc(S(=O)(=O)NCc2ccccc2-c2ccccc2C(=O)NCc2ccccc2)c1` [Example 3 h, 2′-(3-Acetylphenylsulfonylaminomethyl)biphenyl-2-carboxylic acid benzylamide], the melting point was 182 °C.
Compound `O=C(NCCc1ccccc1)c1ccccc1-c1ccccc1CNS(=O)(=O)c1cccc(C(F)(F)F)c1` [Example 3 a, 2′-(3-Trifluoromethylphenylsulfonylaminomethyl)biphenyl-2-carboxylic acid phenethylamide] registered a melting point of 145 °C.
Regarding `O=C(NCCc1ccccc1)c1ccccc1-c1ccccc1CNS(=O)(=O)c1ccccc1` [Example 3 d, 2′-(Phenylsulfonylaminomethyl)biphenyl-2-carboxylic acid phenethylamide], the melting point was determined as 154 °C.
